From patent publication US20120316203A1, “Compositions and Methods for Inhibition of Cancers” (THE OHIO STATE UNIVERSITY RESEARCH FOUNDATION, priority 2009, published 2012)

Tests used:
[1] = tested on: caspase-8, caspase-7, cleaved caspase-3, PARP, Fas/CD95, Fas-L, TNF-R1 in A2780 cells; assay: Immunoblot of apoptotic marker proteins and death receptors; format: cell-based, human
Method: (§1) Cells in RPMI 1640 were treated with DMSO (control) or HO-3867 (10 μmol/L) for 24 hours. Equal volumes of DMSO (0.1% v/v) were present in each treatment. Following treatment, the cell lysates were prepared in non-denaturing lysis buffer containing 10 mmol/L Tris-HCl (pH 7.4), 150 mmol/L NaCl, 1% Triton X-100, 1 mmol/L EDTA, 1 mmol/L EGTA, 0.3 mmol/L phenylmethyl-sulfonyl fluoride, 0.2 mmol/L sodium orthovanadate, 0.5% NP40, 1 μg/mL aprotinin, and 1 μg/mL leupetin. The lysates were centrifuged at 10,000×g for 20 minutes at 4° C. and the supernatant was separated. The protein concentration in the lysates was determined using a Pierce detergent-compatible protein assay kit. For Western blotting, 25 to 50 μg of protein lysate per sample were denatured in 2×SDS-PAGE sample buffer and subjected to SDS-PAGE on a 10% tris-glycine gel. The separated proteins were transferred to a polyvinylidene fluoride membrane and were blocked with 5% nonfat milk powder (w/v) in TBST (10 mmol/L Tris, 10 mmol/L NaCl, 0.1% Tween 20) for 1 hour at room temperature or overnight at 4° C. The membranes were then incubated with the primary antibodies. The bound antibodies were detected with horseradish peroxidase-labeled sheep anti-mouse IgG or horseradish peroxidase-labeled donkey anti-rabbit IgG using an enhanced chemiluminescence detection system (ECL Advanced kit). Protein expressions were determined using the Image Gauge v. 3.45 software.

[2] = tested on: STAT3 and apoptotic markers in HSMC; assay: Western blot of STAT3 signaling and apoptotic markers in HSMC; format: cell-based, human; details: 10 μM, 24 h
Method: (§2) Cells were grown in RPMI 1640 medium and treated with DMSO (control) or HO-3867 ([…]). Equal volumes of DMSO (0.1% v/v) were present in both groups. After treatment, cell lysates were prepared in nondenaturing lysis buffer (10 mM Tris-HCl (pH 7.4), 150 mM NaCl, 1% Triton X-100, 1 mM EDTA, 1 mM EGTA, 0.3 mM phenylmethylsulfonyl fluoride, 0.2-mM sodium orthovanadate, 0.5% NP-40, 1 lag/ml aprotinin, and 1 lag/ml leupeptin). Cell lysates were centrifuged at 10,000 RPM for 20 min at 4° C., and the supernatant was separated. The protein concentration in the lysates was determined using a Pierce detergent-compatible protein assay kit. For Western blotting, 25 to 50 lag of protein lysate per sample was denatured in 2× sample buffer and subjected to SDS-PAGE on a 10 or 12% Tris-glycine gel. The separated proteins were transferred to a PVDF membrane and then the membrane was blocked with 5% nonfat milk powder (w/v) in 10 mM Tris, 100 mM NaCl, 0.1% Tween 20 for 1 h at room temperature or overnight at 4° C. The membranes were incubated with the primary antibodies described above. The bound antibodies were detected with horseradish peroxidase (HRP)-labeled sheep anti-mouse IgG or HRP-labeled donkey anti-rabbit IgG (Amersham) using an enhanced chemiluminescence detection system (ECL Advanced Kit). Protein expression was determined using Image Gauge version 3.45.

[3] = tested on: FAS and FAK in A2780 and SKOV3 cells; assay: FAS and FAK protein and mRNA expression in ovarian cancer cells; format: cell-based, human; details: 10 μM
Method: Cells in RPMI 1640 medium were treated with DMSO (control) or HO-3867 (10 μM) for 24 h. Equal volumes of DMSO (0.1% v/v) were present in each treatment. Following treatment, the cell lysates were prepared in nondenaturing lysis buffer containing 10-mM Tris-HCl (pH 7.4), 150-mM NaCl, 1% Triton X-100, 1-mM EDTA, 1-mM EGTA, 0.3-mM phenylmethylsulfonyl fluoride, 0.2-mM sodium orthovanadate, 0.5% NP40, 1-μg/ml aprotinin, and 1-μg/ml leupetin. The lysates were centrifuged at 10,000×g for 20 min at 4° C., and the supernatant was separated. The protein concentration in the lysates was determined using a Pierce detergent-compatible protein assay kit. For Western blotting, 25 to 50 μg of protein lysate per sample was denatured in 2×SDS-PAGE sample buffer and subjected to SDS-PAGE on a 10% tris-glycine gel. […] The bound antibodies were detected with horseradish peroxidase (HRP)-labeled sheep anti-mouse IgG or HRP-labeled donkey anti-rabbit IgG using an enhanced chemiluminescence detection system (ECL Advanced kit). Protein expressions were determined using Image Gauge version 3.45.
Total RNA isolated from ovarian tumor tissue was prepared with TRIzol (Life Technologies, Grand Island, N.Y.) according to the manufacturer's instructions. RNA quantification was done using spectrophotometry. […]

[4] = tested on: A2780R, SKOV3, OV4, and OVCAR3 cells; assay: Western blot of apoptosis and JAK/STAT3 in four additional ovarian cancer cell lines; format: cell-based, human; details: 10 μmol/L, 24 hours, all four cell lines
Method: as §1, with “The membranes were then incubated with the primary antibodies.” left out, “3.45 software.” left out

[5] = tested on: pSTAT3 (Tyr705 and Ser727), cleaved caspase-3 and PARP in A2780, A549, HepG2, MCF-7, HCT-116 cells; assay: Western blot of STAT3 signaling and apoptotic markers in cancer cells; format: cell-based, human; details: 10 μM, 24 h
Method: as §2

[6] = tested on: A2780, A2780R, MCF-7, HCT-116, PC-3, HepG2, A549, and SCC4 human cancer cell lines; assay: Cytotoxicity of DAPs to cancer cells (MTT); format: cell-based; details: 10 μM, 24 h
Method: Cell viability was determined by a colorimetric assay using MTT. In the mitochondria of living cells, yellow MTT undergoes a reductive conversion to formazan, giving a purple color. Cells, grown to […] confluence in 75-mm flasks, were trypsinized, counted, seeded in 96-well plates with an average population of 7000 cells/well, incubated overnight, and then treated with the DAPs (H-4073, HO-3867, H4318, or HO-4200; […]) for 24 h. All experiments were done using eight replicates and repeated at least three times. Cell viability was expressed as the percentage of MIT viability of untreated cells.

For CC1(C)C=C(CN2C/C(=C\c3ccc(F)cc3)C(=O)/C(=C/c3ccc(F)cc3)C2)C(C)(C)N1O [HO-3867, 1-[(1-oxyl-2,2,5,5-tetramethyl-2,5-dihydro-1H-pyrrol-3-yl)methyl]-(3E,5E)-3,5-bis(4-fluorobenzylidene)piperidin-4-one], which “level of activated caspases (caspase-8, caspase-7, cleaved caspase-3) and PARP” value ([1]; 24 hours, versus nontreated cells) is on record?
Its value is “significant increase”.

What about the Fas-L level ([1]; data not shown) of the same molecule?
Its Fas-L level is “no significant change”.

What about the “expression level of TNF-R1” value ([1]; data not shown) of the same molecule?
Its value is “unchanged”.

And the Fas/CD95 expression ([1]; versus nontreated group)?
Its Fas/CD95 expression is “clear increase”.

What about the “activation of STAT3 or apoptotic markers in HSMC” value [2] of the same molecule?
The value was “did not induce any significant change”.

And the “FAS and FAK, protein and expression levels” value [3]?
The value was “incubation-time-dependent inhibition”.

And the “caspase-3 and PARP cleavage” value [4]?
The value was “clearly showed caspase-3 and PARP cleavage”.

And the “expression levels of pSTAT3 and JAK1” value [4]?
Its value is “decrease”.

And the “Tyr705 and Ser727 pSTAT3 levels in cancer cells” value [5]?
Its value is “significantly attenuated”.

What about the “activated caspase-3 and PARP in cancer cells” value [5] of the same molecule?
Its value is “significant elevation”.

What about the “cell viability of human cancer cell lines” value [6] of the same molecule?
The value was “substantial loss of cell viability”.
